The source of these data is patent US9877981B2, “NAD biosynthesis and precursors for the treatment and prevention of cancer and proliferation” (President and Fellows of Harvard College, priority 2012, dated 2018).

SMILES strings stand for the structures. Entries after “also recorded” stand apart in the source; their conditions may differ.

In one assay the test system is HIF-1α. In words: Immunoblot for HIF-1α in gastrocnemius of treated mice. The assay is classed as in vivo. On the procedure: (§1) C57BL/6J mice of 3, 6, 22, 24, or 30 months of age were obtained from the National Institutes of Aging mouse aging colony. Mice were acclimated for at least one-week prior to sacrifice. 3, and 24-month-old mice were given interperitoneal (IP) injections of 500 mg NMN/kg body weight per day or the equivalent volume of PBS for 7 consecutive days at 5:00 pm and 7:00 am on day 8 and sacrificed 4 hr after last injection. All animal studies followed the guidelines of and were approved by the Harvard Institutional Animal Care and Use Committee
C57BL/6J mice of 6, 22, or 30 months of age were obtained from the National Institutes of Aging mouse aging colony. Additionally 22 months old caloric restricted mice were also obtained from the National Institutes of Aging mouse aging colony. EGLN1 KO, SIRT1 KO and SIRT1 OE mice were generated as previously described (Minamishima et al., 2008; Price et al., 2012). Mice were acclimated for at least one-week prior to sacrifice. […]
(§2) Protein extracts from tissue or C2C12 cells were obtained by lysis in ice-cold lysis buffer (150 mM NaCl, 10 mM Tris HCl (pH 7.4), 1 mM EDTA, 1 mM EGTA, 1% Triton X-100, 0.5% NP-40) supplemented with a cocktail of protease and phosphatase inhibitors (Roche). Protein content was determined by the Bradford protein assay (Biorad), and 50 μg proteins were run on SDS-PAGE under reducing conditions. […] The immunostaining was detected using horseradish peroxidase-conjugated anti-rabbit or anti-mouse immunoglobulin for 1 h at room temperature.
(§3) Protein extracts from tissue were obtained by lysis in ice-cold lysis buffer (150 mM NaCl, 10 mM Tris HCl (pH 7.4), 1 mM EDTA, 1 mM EGTA, 1% Triton X-100, 0.5% NP-40) supplemented with a cocktail of protease and phosphatase inhibitors (Roche). Protein content was determined by the Bradford protein assay (Biorad), and 50 μg proteins were run on SDS-PAGE under reducing conditions. […] The immunostaining was detected using horseradish peroxidase-conjugated anti-rabbit or anti-mouse immunoglobulin for 1 h at room temperature.

For the next assay, the system named is TFAM promoter. The assay is described as follows: TFAM promoter activity by luciferase assay in primary WT myoblasts. The assay is classed as cell-based, mouse. Conditions: DMOG vs DMSO. The procedure: TFAM promoter, VHL promoter, HRE and c-Myc activity were determined using a luciferase-based system. Luciferase activity was measured using the Dual-Luciferase Reporter Assay System (Promega) with Renilla as the reference.
TFAM promoter activity was evaluated using a TFAM promotes-luc plasmid. A fragment of the mouse Tfam promoter (1.4 kb upstream of the coding sequence) was cloned into a pGL4.15 vector (Promega). Luciferase activity was measured using the Dual-Luciferase Reporter Assay System (Promega) with Renilla as the reference 48 h after transfection.

For a further assay, the system named is VHL. In words: Immunoblot for VHL in gastrocnemius of treated mice. Format: in vivo. The note with it: 6- and 22-month-old mice, NMN one week.
Text: (§4) C57BL/6J mice of 6, 22, or 30 months of age were obtained from the National Institutes of Aging mouse aging colony. Additionally 22 months old caloric restricted mice were also obtained from the National Institutes of Aging mouse aging colony. EGLN1 KO, SIRT1 KO and SIRT1 OE mice were generated as previously described (Minamishima et al., 2008; Price et al., 2012). Mice were acclimated for at least one-week prior to sacrifice. 3, 6, 22 and 24-month-old mice were given interperitoneal (IP) injections of 500 mg NMN/kg body weight per day or the equivalent volume of PBS for 7 consecutive days at 5:00 pm and 7:00 am on day 8 and sacrificed 4 hr after last injection.
C57BL/6J mice of 3, 6, 22, or 24 months of age were obtained from the National Institutes of Aging mouse aging colony. […]
as §3

Assay [1] concerns HIF-1α target genes (PGK-1, Glut1, PDK1 and Vegfa). The assay is described as follows: qPCR of HIF-1α target genes in gastrocnemius of treated mice. The assay is classed as in vivo. Conditions: 3- and 24-month-old mice, NMN 500 mg/kg IP one week. On the procedure:
as §1
(§5) RNA from skeletal muscle tissue and C2C12 cells were extracted with RNeasy mini kit (Qiagen) according to the instructions and quantified using the NanoDrop 1000 spectrophotometer (Thermo Scientific). cDNA was synthesized with the iSCRIP cDNA synthesis kit (BioRad) using 600 ng of RNA. Quantitative RT-PCR reactions were performed using 1 μM of primers and LightCycler® 480 SYBR Green Master (Roche) on an LightCycler® 480 detection system (Roche). Calculations were performed by a comparative method (2-ΔCT) using 18S as an internal control. […]
RNA from skeletal muscle and aorta were extracted with RNeasy mini kit (Qiagen) according to the instructions and quantified using the NanoDrop 1000 spectrophotometer (Thermo Scientific). cDNA was synthesized with the iSCRIP cDNA synthesis kit (BioRad) using 600 ng of RNA. […]

Assay [2] relates to inflammatory markers (TNF-α, IL-6 and IL-18). In words: qPCR of inflammatory markers in gastrocnemius of treated mice. Conditions: old (22-month) mice; NMN one week; skeletal muscle. Format: in vivo.
Text: as §4, §5
In general terms: Quantitative PCR measures a nucleic acid by following its amplification.

A further assay has as its system lactate. In words: Lactate levels in skeletal muscle of treated mice. The assay is classed as in vivo. The note with it: 6- and 22-month-old mice; NMN one week.
Text: as §4
C57BL/6J mice of 3, 6, 22, or 24 months of age were obtained from the National Institutes of Aging mouse aging colony. Additionally 22 months old caloric restricted mice were also obtained from the National Institutes of Aging mouse aging colony. Mice were acclimated for at least one-week prior to sacrifice. 3, 6, 22 and 24-month-old mice were given interperitoneal (IP) injections of 500 mg NMN/kg body weight per day or the equivalent volume of PBS for 7 consecutive days at 5:00 pm and 7:00 am on day 8 and sacrificed 4 hr after last injection. […]
Lactate from skeletal muscle was quantified with a commercially available kit (BioVision) according to the manufacturer's instructions.

In a further assay the test system is Atrogin-1 and MuRF1. In words: Immunoblot for muscle wasting markers in gastrocnemius of treated mice. The assay is classed as in vivo. Conditions: old (22-month) mice; NMN one week; skeletal muscle.
Text: as §4
as §2, with “conditions. The separated proteins were then electrophoretically transferred to a polyvinylidene difluoride membrane (Perkin-Elmer).” for “conditions.”
Background: Immunoblotting shows a protein as a band on a membrane.

A further assay relates to primary myoblasts. In words: qPCR of mitochondrial-encoded genes in primary myoblasts infected with NMNAT1 or nontargeting shRNA. The assay is classed as cell-based, mouse. Conditions: primary myoblasts with knockdown of NMNAT1.

Regarding `COC(=O)CNC(=O)C(=O)OC` [DMOG, dimethyloxaloylglycine], the HIF-1α protein entry in the assay on HIF-1α (SIRT1-tg mice, DMOG 300 mg/kg IP per day, 5 days) was “increase HIF-1α”. Besides, in the assay on TFAM promoter, the “full length TFAM promoter activity” value is given as “reduces the full length TFAM promoter activity”. In addition, in the assay with TFAM promoter (c-Myc binding site absent), the “TFAM promoter activity with c-Myc consensus sequence mutation” value is reported as “does not have an additive effect”.

Turning to `NC(=O)c1ccc[n+]([C@@H]2O[C@H](COP(=O)([O-])O)[C@@H](O)[C@H]2O)c1` [NMN, nicotinamide mononucleotide], the “HIF-1α protein in muscle” value with HIF-1α (3- and 24-month-old mice, NMN 500 mg/kg IP one week) is given as “reversed the age-induced increase in HIF-1α in muscle”. The HIF-1α protein accumulation entry with HIF-1α (6- and 22-month-old mice, NMN one week) is “reversed; also recorded: reduced the level of HIF-1α in muscle”. Further, the VHL protein result in the assay with VHL is on record as “reversed the age-induced decline in VHL”. Further, the “expression of HIF-1α target genes” value in assay [1] is “suppressed the expression of HIF-1α target genes”. Further, the “expression of inflammation markers” value in assay [2] is “completely reversed these markers”. Moreover, the “lactate levels in the skeletal muscle” value in the assay with lactate is “suppressed the increase in lactate levels”. In addition, the “muscle wasting markers Atrogin-1 and MuRF1” value in the assay with Atrogin-1 and MuRF1 is “completely reversed these markers”. Moreover, the “ability of NMN to induce expression of mitochondrial-encoded genes” value in the assay on primary myoblasts is listed as “completely abolishes the ability of NMN to induce the expression of mitochondrial-encoded genes”.
